Reference: patent US9976141B2, “Compositions and methods for inhibiting gene expression of Hif2alpha” (Arrowhead Madison Inc., priority 2015, dated 2018)
Strand notation (5' to 3'): a small letter for the sugar, then the base; units joined by * are phosphorothioate-linked, units joined directly phosphodiester-linked; [ ] holds rarer units or linkages, { } end groups; capitals alone tell only the bases. d = 2'-deoxy (DNA); m = 2'-O-methyl; f = 2'-fluoro

System: human EPAS1 (Hif2α) cDNA in psiCHECK2 (Renilla luciferase/EPAS1 fusion mRNA) in Hep3B cells
Assay: Efficacy screen of Hif2α RNAi triggers in vitro, dual-luciferase reporter assay (1 nM and 0.1 nM)
Assay type: cell-based
Details: Hep3B cells co-transfected with EPAS1-psiCHECK2, Renilla luciferase normalized to firefly luciferase
Excerpt: Candidate sequences were identified by in silico analysis and screened as chemically modified canonical siRNAs in vitro. For screening purposes, the human EPAS1 (Hif2α) cDNA sequence (accession #NM 001430) was synthesized and cloned (DNA 2.0, Menlo Park, Calif.) into a commercially-available reporter-based screening plasmid, psiCHECK2 (Promega, Madison, Wis.) which generated a Renilla luciferase/EPAS1 fusion mRNA. For RNAi trigger efficacy evaluation, Hep3B cells, a human hepatocellular carcinoma line, were plated at 10,000 cells per well in 96-well format. Each of the 187 EPAS1 RNAi triggers, in two subsets, was co-transfected at two concentrations, 1 nM and 0.1 nM, with 25 ng EPAS1-psiCHECK2 plasmid DNA per well and 0.2 μL LipoFectamine 2000 (Life Technologies) per well. Gene knockdown was determined by measuring Renilla luciferase levels normalized to the levels of constitutively-expressed firefly luciferase, also present on the psiCHECK-2 plasmid, using the Dual Luciferase Reporter Assay (Promega, Madison, Wis.) Table 5.

Substance	Relative Rluc-Hif2α (0.1 nM RNAi trigger)	Relative Rluc-Hif2α (1 nM RNAi trigger)
2297 (sense fCmAfAmUfGmCfAmGfUmAfCmCfCmAfGmAfCmGfAdT; antisense dTfCmGfUmCfUmGfGmGfUmAfCmUfGmCfAmUfUmGdT*dT; siRNA) [compound 2297]	0.704 ± 0.083	0.643 ± 0.028
2298 (sense fAmUfGmCfAmGfUmAfCmCfCmAfGmAfCmGfGmAfAdT; antisense dTfUmCfCmGfUmCfUmGfGmGfUmAfCmUfGmCfAmUdT*dT; siRNA) [compound 2298]	0.729 ± 0.092	0.695 ± 0.037
2299 (sense fAmGfUmAfCmCfCmAfGmAfCmGfGmAfUmUfUmCfAdT; antisense dTfGmAfAmAfUmCfCmGfUmCfUmGfGmGfUmAfCmUdT*dT; siRNA) [compound 2299]	0.907 ± 0.171	0.827 ± 0.067
2300 (sense fCmUfGmUfAmGfCmCfCmCfGmCfAmCfAmGfUmCfAdT; antisense dTfGmAfCmUfGmUfGmCfGmGfGmGfCmUfAmCfAmGdT*dT; siRNA) [compound 2300]	1.090 ± 0.106	0.786 ± 0.181
2301 (sense fAmUfCmUfUmCfUmUfUmGfAmUfGmCfCmGfGmAfAdT; antisense dTfUmCfCmGfGmCfAmUfCmAfAmAfGmAfAmGfAmUdT*dT; siRNA) [compound 2301]	0.558 ± 0.034	0.423 ± 0.102
2302 (sense fCmUfUmUfGmAfUmGfCmCfGmGfAmAfGmCfAmAfAdT; antisense dTfUmUfGmCfUmUfCmCfGmGfCmAfUmCfAmAfAmGdT*dT; siRNA) [compound 2302]	0.414 ± 0.019	0.147 ± 0.028
2303 (sense fGmAfUmGfCmCfGmGfAmAfGmCfAmAfAmGfCmAfAdT; antisense dTfUmGfCmUfUmUfGmCfUmUfCmCfGmGfCmAfUmCdT*dT; siRNA) [compound 2303]	0.414 ± 0.002	0.294 ± 0.034
2304 (sense fAmUfGmCfCmGfGmAfAmGfCmAfAmAfGmCfAmUfAdT; antisense dTfAmUfGmCfUmUfUmGfCmUfUmCfCmGfGmCfAmUdT*dT; siRNA) [compound 2304]	0.528 ± 0.116	0.302 ± 0.025
2305 (sense fGmCfCmGfGmAfAmGfCmAfAmAfGmCfAmUfCmCfAdT; antisense dTfGmGfAmUfGmCfUmUfUmGfCmUfUmCfCmGfGmCdT*dT; siRNA) [compound 2305]	0.961 ± 0.120	0.992 ± 0.217
2306 (sense fCmCfCmCfCmAfGmAfUmCfCmAfCmCfAmUfUmAfAdT; antisense dTfUmAfAmUfGmGfUmGfGmAfUmCfUmGfGmGfGmGdT*dT; siRNA) [compound 2306]	0.596 ± 0.038	0.613 ± 0.031
2307 (sense fAmGfAmUfCmCfAmCfCmAfUmUfAmCfAmUfUmUfAdT; antisense dTfAmAfAmUfGmUfAmAfUmGfGmUfGmGfAmUfCmUdT*dT; siRNA) [compound 2307]	0.800 ± 0.248	0.702 ± 0.142
2308 (sense fAmUfUmUfUmGfGmGfCmCfCmAfCmAfAmAfGmUfAdT; antisense dTfAmCfUmUfUmGfUmGfGmGfCmCfCmAfAmAfAmUdT*dT; siRNA) [compound 2308]	0.799 ± 0.084	0.998 ± 0.059
2309 (sense fUmUfUmUfGmGfGmCfCmCfAmCfAmAfAmGfUmGfAdT; antisense dTfCmAfCmUfUmUfGmUfGmGfGmCfCmCfAmAfAmAdT*dT; siRNA) [compound 2309]	0.823 ± 0.096	1.081 ± 0.135
2310 (sense fUmUfUmGfGmGfCmCfCmAfCmAfAmAfGmUfGmGfAdT; antisense dTfCmCfAmCfUmUfUmGfUmGfGmGfCmCfCmAfAmAdT*dT; siRNA) [compound 2310]	0.785 ± 0.122	0.923 ± 0.101
2311 (sense fCmCfAmCfAmAfAmGfUmGfGmGfCmCfGmUfCmGfAdT; antisense dTfCmGfAmCfGmGfCmCfCmAfCmUfUmUfGmUfGmGdT*dT; siRNA) [compound 2311]	0.888 ± 0.051	0.841 ± 0.130
2312 (sense fCmAfCmAfAmAfGmUfGmGfGmCfCmGfUmCfGmGfAdT; antisense dTfCmCfGmAfCmGfGmCfCmCfAmCfUmUfUmGfUmGdT*dT; siRNA) [compound 2312]	0.899 ± 0.124	0.725 ± 0.173
2313 (sense fAmGfUmGfGmGfCmCfGmUfCmGfGmGfGmAfUmCfAdT; antisense dTfGmAfUmCfCmCfCmGfAmCfGmGfCmCfCmAfCmUdT*dT; siRNA) [compound 2313]	0.853 ± 0.133	0.886 ± 0.243

Substance	Relative Rluc-Hif2α (0.1 nM RNAi trigger)	Relative Rluc-Hif2α (1 nM RNAi trigger)
2314 (sense fAmAfAmGfGmGfUmUfUmUfGmGfGmGfCmUfCmGfAdT; antisense dTfCmGfAmGfCmCfCmCfAmAfAmAfCmCfCmUfUmUdT*dT; siRNA) [compound 2314]	0.692 ± 0.141	0.920 ± 0.150
2315 (sense fGmGfCmUfCmGfAmGfGmCfCmCfAmGfAmCfGmUfAdT; antisense dTfAmCfGmUfCmUfGmGfGmCfCmUfCmGfAmGfCmCdT*dT; siRNA) [compound 2315]	0.781 ± 0.206	0.876 ± 0.099
2316 (sense fGmCfUmCfGmAfGmGfCmCfCmAfGmAfCmGfUmGfAdT; antisense dTfCmAfCmGfUmCfUmGfGmGfCmCfUmCfGmAfGmCdT*dT; siRNA) [compound 2316]	0.797 ± 0.211	0.579 ± 0.055
2317 (sense fCmUfCmGfAmGfGmCfCmCfAmGfAmCfGmUfGmCfAdT; antisense dTfGmCfAmCfGmUfCmUfGmGfGmCfCmUfCmGfAmGdT*dT; siRNA) [compound 2317]	0.842 ± 0.239	0.843 ± 0.157
2318 (sense fGmGfUmAfGmCfCmCfUmCfUmCfCmAfAmCfAmAfAdT; antisense dTfUmUfGmUfUmGfGmAfGmAfGmGfGmCfUmAfCmCdT*dT; siRNA) [compound 2318]	0.885 ± 0.370	0.780 ± 0.103
2319 (sense fCmUfUmUfGmAfUmGfCmCfGmGfAmCfAmAfGmCfAdT; antisense dTfGmCfUmUfGmUfCmCfGmGfCmAfUmCfAmAfAmGdT*dT; siRNA) [compound 2319]	0.454 ± 0.101	0.234 ± 0.055
2320 (sense fUmUfUmGfAmUfGmCfCmGfGmAfCmAfAmGfCmCfAdT; antisense dTfGmGfCmUfUmGfUmCfCmGfGmCfAmUfCmAfAmAdT*dT; siRNA) [compound 2320]	0.770 ± 0.312	0.486 ± 0.059
2321 (sense fUmUfGmAfUmGfCmCfGmGfAmCfAmAfGmCfCmAfAdT; antisense dTfUmGfGmCfUmUfGmUfCmCfGmGfCmAfUmCfAmAdT*dT; siRNA) [compound 2321]	0.561 ± 0.043	0.665 ± 0.033
2322 (sense fGmGfAmCfAmAfGmCfCmAfCmUfGmAfGmCfGmCfAdT; antisense dTfGmCfGmCfUmCfAmGfUmGfGmCfUmUfGmUfCmCdT*dT; siRNA) [compound 2322]	0.468 ± 0.012	0.306 ± 0.059
2323 (sense fAmCfAmAfGmCfCmAfCmUfGmAfGmCfGmCfAmAfAdT; antisense dTfUmUfGmCfGmCfUmCfAmGfUmGfGmCfUmUfGmUdT*dT; siRNA) [compound 2323]	0.631 ± 0.085	0.664 ± 0.166
2324 (sense fGmGfAmCfUmAfCmAfGmCfCmUfGmUfCmGfUmCfAdT; antisense dTfGmAfCmGfAmCfAmGfGmCfUmGfUmAfGmUfCmCdT*dT; siRNA) [compound 2324]	1.081 ± 0.293	1.046 ± 0.208
2325 (sense fGmAfCmUfAmCfAmGfCmCfUmGfUmCfGmUfCmAfAdT; antisense dTfUmGfAmCfGmAfCmAfGmGfCmUfGmUfAmGfUmCdT*dT; siRNA) [compound 2325]	1.304 ± 0.134	1.379 ± 0.275
2326 (sense fCmUfAmCfAmGfCmCfUmGfUmCfGmUfCmAfGmCfAdT; antisense dTfGmCfUmGfAmCfGmAfCmAfGmGfCmUfGmUfAmGdT*dT; siRNA) [compound 2326]	0.660 ± 0.114	0.546 ± 0.083
2327 (sense fCmCfUmGfUmCfGmUfCmAfGmCfCmCfAmCfAmAfAdT; antisense dTfUmUfGmUfGmGfGmCfUmGfAmCfGmAfCmAfGmGdT*dT; siRNA) [compound 2327]	1.339 ± 0.179	1.073 ± 0.089
2328 (sense fGmCfAmUfGmGfCmAfAmGfCmCfGmGfCmUfGmCfAdT; antisense dTfGmCfAmGfCmCfGmGfCmUfUmGfCmCfAmUfGmCdT*dT; siRNA) [compound 2328]	1.291 ± 0.109	1.192 ± 0.144
2329 (sense fCmUfGmAfCmCfAmGfAmUfAmUfGmAfCmUfGmUfAdT; antisense dTfAmCfAmGfUmCfAmUfAmUfCmUfGmGfUmCfAmGdT*dT; siRNA) [compound 2329]	0.807 ± 0.117	0.456 ± 0.064
